Earlier results, collected in patent US20070025945A1, “Stabilized pharmaceutical and cosmetic composition of catechins or derivatives thereof” (Anagen Therapeutics, Inc., priority 2005, published 2007).

What was measured:
[1] = tested on: 5-alpha-reductase isozyme I / isozyme II; details: 5-alpha-reductase isozymes
[2] = tested on: teleocidin-induced tumor promotion; details: topically applied to skin; mice previously initiated with DMBA
sebum production = details: topical application directly to the forehead

Structure (SMILES)	activity against isozyme I versus isozyme II [1]	teleocidin-induced tumor promotion [2]	sebum production from the human forehead (sebum production)
O=C(O[C@@H]1Cc2c(O)cc(O)cc2O[C@@H]1c1ccc(O)c(O)c1)c1cc(O)c(O)c(O)c1 [ECG, (−)-epicatechin-3-gallates]	more active against isozyme I than isozyme II	–	–
O=C(O[C@@H]1Cc2c(O)cc(O)cc2O[C@@H]1c1cc(O)c(O)c(O)c1)c1cc(O)c(O)c(O)c1 [EGCG, (−)-epigallocatechin-3-gallates]	more active against isozyme I than isozyme II	inhibits	inhibited
CCCCC/C=C\C/C=C\C/C=C\CCCCC(=O)O [gamma-linolenic acid]	–	–	inhibited
